Reference: patent publication US20110092547A1 (priority 2007, published 2011)

Biological target: T1, human DGAT1 (Homo sapiens, UniProt O75907)
T1 construct: made in house; host or cells: Sf9 insect cells (recombinant baculovirus); membrane fraction
T1 sequence (O75907 1-488): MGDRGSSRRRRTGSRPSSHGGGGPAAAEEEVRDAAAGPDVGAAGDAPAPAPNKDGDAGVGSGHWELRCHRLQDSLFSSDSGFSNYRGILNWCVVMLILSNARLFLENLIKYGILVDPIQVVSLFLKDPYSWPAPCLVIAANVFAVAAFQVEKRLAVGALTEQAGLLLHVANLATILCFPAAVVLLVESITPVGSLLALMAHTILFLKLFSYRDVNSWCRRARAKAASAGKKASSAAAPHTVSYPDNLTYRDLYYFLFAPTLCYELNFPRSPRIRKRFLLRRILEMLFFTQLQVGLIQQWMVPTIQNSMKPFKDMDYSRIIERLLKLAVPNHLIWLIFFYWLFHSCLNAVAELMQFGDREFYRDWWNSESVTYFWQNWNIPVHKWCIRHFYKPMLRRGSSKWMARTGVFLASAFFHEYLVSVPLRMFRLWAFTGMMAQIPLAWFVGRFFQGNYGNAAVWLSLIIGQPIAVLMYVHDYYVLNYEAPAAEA
Assay: Human enzyme assay, further developed assay (14C oleoyl CoA, 96 well plate)
Assay type: biochemical
Conditions: human DGAT1 expressed in insect cell (sf9) membranes
Protocol: The in vitro assay to identify DGAT1 inhibitors uses human DGAT1 expressed in insect cell membranes as the enzyme source (Proc. Natl. Acad. Sci. 1998, 95, 13018-13023). Briefly, sf9 cells were infected with recombinant baculovirus containing human DGAT1 coding sequences and harvested after 48 h. Cells were lysed by sonication and membranes isolated by centrifuging at 28000 rpm for 1 h at 4° C. on a 41% sucrose gradient. The membrane fraction at the interphase was collected, washed, and stored in liquid nitrogen.
In a further developed assay, DGAT1 activity was assayed by a modification of the method described by Coleman (Methods in Enzymology 1992, 209, 98-102). Compound at 0.00003-10 μM (final cone) was incubated with 25 μg/ml (final cone) membrane protein, 5 mM MgCl2, and 100 μM 1,2 dioleoyl-sn-glycerol in a total assay volume of 200 μl in a 96 well plate. The reaction was started by adding ^14C oleoyl coenzyme A (30 μM final concentration) and incubated at room temperature for 30 minutes. The reaction was stopped by adding 300 μl 2-propanol:heptane 7:1. Radioactive triolein product was separated into the organic phase by adding 200 μl heptane and 200 μl 0.1 M carbonate buffer pH 9.5. DGAT1 activity was quantified by counting aliquots of the upper heptane layer by liquid scintillography.

| Structure (SMILES) | IC50 [nM] |
| --- | --- |
| Cc1cc(O[C@H]2CC[C@@H](C(=O)O)CC2)ncc1NC(=O)c1nnc(Nc2ccc(F)c(F)c2)o1 [Example 40, (1s,4s)-4-(5-(5-(3,4-Difluorophenylamino)-1,3,4-oxadiazole-2-carboxamido)-4-methylpyridin-2-yloxy)cyclohexanecarboxylic acid] | 3.5 |
| O=C(Nc1ccc(OC2CCC(C(=O)O)CC2)nc1)c1nnc(Nc2cc(F)c(F)cc2F)o1 (stereo not drawn) [Example 19, 4-({5-[({5-[(2,4,5-trifluorophenyl)amino]-1,3,4-oxadiazol-2-yl}carbonyl)amino]pyridin-2-yl}oxy)cyclohexanecarboxylic acid] | 12 |
| O=C(Nc1ccc(O[C@H]2CC[C@@H](C(=O)O)CC2)nc1F)c1nnc(Nc2ccc(F)c(Cl)c2)o1 [Example 55, (1s,4s)-4-(5-(5-(3-Chloro-4-fluorophenylamino)-1,3,4-oxadiazole-2-carboxamido)-6-fluoropyridin-2-yloxy)cyclohexanecarboxylic acid] | 2.1 |
| O=C(Nc1ccc(O[C@H]2CC[C@H](C(=O)O)CC2)nc1)c1nnc(Nc2cccc(Cl)c2)o1 [Example 27, (1r,4r)-4-(5-(5-(3-chloro-phenylamino)-1,3,4-oxadiazole-2-carboxamido)pyridin-2-yloxy)cyclo-hexane-carboxylic acid] | 19 |
| O=C(Nc1ccc(O[C@H]2CC[C@H](C(=O)O)CC2)nc1)c1nnc(Nc2ccc(F)c(C(F)(F)F)c2)o1 [Example 29, (1r,4r)-4-(5-(5-(4-fluoro-3-(trifluoro-methyl)phenylamino)-1,3,4-oxadiazole-2-carboxamido)pyridin-2-yloxy)cyclo-hexane-carboxylic acid] | 25 |
| O=C(Nc1ccc(O[C@H]2CC[C@@H](C(=O)O)CC2)nc1)c1nnc(Nc2ccc(F)c(F)c2)o1 [Example 1, cis-4-[5-[[5-[(3,4-Difluorophenyl)amino]-1,3,4-oxadiazole-2-carbonyl]amino]pyridin-2-yl]oxycyclohexane-1-carboxylic acid] | 11 |
| O=C(Nc1ccc(O[C@H]2CC[C@@H](C(=O)O)CC2)nc1F)c1nnc(Nc2ccc(F)c(F)c2)o1 [Example 50, (1s,4s)-4-(5-(5-(3,4-Difluorophenylamino)-1,3,4-oxadiazole-2-carboxamido)-6-fluoropyridin-2-yloxy)cyclohexanecarboxylic acid] | 3.4 |
| O=C(Nc1ccc(O[C@H]2CC[C@@H](C(=O)O)CC2)nc1)c1nnc(Nc2ccc(F)c(Cl)c2)o1 [Example 16, (1s,4s)-4-(5-(5-(3-chloro-4-fluorophenylamino)-1,1,4-oxadiazole-2-carboxamido)pyridin-2-yloxy)cyclohexanecarboxylic acid] | 3.8 |
| O=C(O)C[C@H]1CC[C@@H](Oc2ccc(NC(=O)c3nnc(Nc4ccc(F)c(F)c4)o3)cn2)CC1 [Example 36, 2-((1s,4s)-4-(5-(5-(3,4-difluorophenylamino)-1,3,4-oxadiazole-2-carboxamido)pyridin-2-yloxy)cyclohexyl)acetic acid] | 9.6 |
| O=C(Nc1ccc(OC2CCC(C(=O)O)CC2)nc1)c1nnc(Nc2ccc(OC(F)F)cc2)o1 (stereo not drawn) [Example 21, 4-[(5-{[(5-{[4-(difluoromethoxy)phenyl]amino}-1,3,4-oxadiazol-2-yl)carbonyl]amino}pyridin-2-yl)oxy]cyclohexanecarboxylic acid] | 11 |
| CC(C)(C)c1ccc(Nc2nnc(C(=O)Nc3ccc(O[C@H]4CC[C@H](C(=O)O)CC4)nc3)o2)cc1 [Example 31, (1r,4r)-4-(5-(5-(4-tert-butylphenyl-amino)-1,3,4-oxadiazole-2-carboxamido)pyridin-2-yloxy)cyclo-hexane-carboxylic acid] | 48 |
| O=C(Nc1ccc(O[C@H]2CC[C@H](C(=O)O)CC2)nc1)c1nnc(Nc2cccc(OC(F)(F)F)c2)o1 [Example 34, (1r,4r)-4-(5-(5-(3-(trifluoromethoxy)phenylamino)-1,3,4-oxadiazole-2-carboxamido)pyridin-2-yloxy)cyclohexanecarboxylic acid] | 21 |
